Patent US20080194606A1, “Pyrazolyl-Amino-Substituted Pyrimidines and Their Use in the Treatment of Cancer” (ASTRAZENECA, priority 2005, published 2008)

Target: T1, human Trk A kinase (Homo sapiens, UniProt P04629)
T1 construct: HIS; made in house; host or cells: SF9 insect cells
Test: Trk A Assay (Alphascreen kinase assay)
Format: biochemical
Details: 70 μM ATP, 20 minutes, room temperature, read-out: IC50 (Trk inhibitory activity)
Method: Trk A kinase activity was measured for its ability to phosphorylate synthetic tyrosine residues within a generic polypeptide substrate using an Amplified Luminescent Proximity Assay (Alphascreen) technology (PerkinElmer, 549 Albany Street, Boston, Mass.).
To measure Trk A kinase activity, the intracellular domain of a HIS-tagged human Trk A kinase (amino acids 442-796 of Trk A, Swiss-Prot Primary Accession Number P04629) was expressed in SF9 cells and purified using standard nickel column chromatography. After incubation of the kinase with a biotinylated substrate and adenosine triphosphate (ATP) for 20 minutes at room temperature, the kinase reaction was stopped by the addition of 30 mM ethylenediaminetetraacetic acid (EDTA). The reaction was performed in 384 well microtitre plates and the reaction products were detected with the addition of strepavidin coated Donor Beads and phosphotyrosine-specific antibodies coated Acceptor Beads using the EnVision Multilabel Plate Reader after an overnight incubation at room temperature.

T1 sequence (P04629 442-796): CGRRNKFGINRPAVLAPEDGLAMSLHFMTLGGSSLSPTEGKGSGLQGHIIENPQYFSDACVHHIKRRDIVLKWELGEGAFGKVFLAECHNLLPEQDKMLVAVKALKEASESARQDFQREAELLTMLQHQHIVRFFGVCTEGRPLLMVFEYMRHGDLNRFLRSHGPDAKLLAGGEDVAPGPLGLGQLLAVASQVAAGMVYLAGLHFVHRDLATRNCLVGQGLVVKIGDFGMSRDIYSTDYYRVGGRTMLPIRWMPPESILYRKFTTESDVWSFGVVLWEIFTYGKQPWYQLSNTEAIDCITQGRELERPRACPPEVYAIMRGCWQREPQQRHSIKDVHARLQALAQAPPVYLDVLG

Row | IC50 [µM] | SMILES
1 | 0.036 | C[C@H](Nc1nc(Nc2cc(C3CC3)[nH]n2)ncc1C#N)c1ccc(F)cc1 [Example 4, 2-[(5-Cyclopropyl-1H-pyrazol-3-yl)amino]-4-{[(1S)-1-(4-fluorophenyl)ethyl]amino}pyrimidine-5-carbonitrile]
2 | 0.106 | Cc1cnc(Nc2cc(C3CC3)[nH]n2)nc1N[C@@H](CO)c1ccc(F)cc1 [Example 5, (2R)-2-({2-[(5-Cyclopropyl-1H-pyrazol-3-yl)amino]-5-methylpyrimidin-4-yl}amino)-2-(4-fluorophenyl)ethanol]
3 | 3.94 | Cc1cc(Nc2ncc(Cl)c(N[C@@H](CO)c3ccc(F)cc3)n2)n[nH]1 [Example 7, (2R)-2-({5-Chloro-2-[(5-methyl-1H-pyrazol-3-yl)amino]pyrimidin-4-yl}amino)-2-(4-fluorophenyl)ethanol]
